Experimental findings from US20080226714A1, “SUSTAINED-RELEASE TABLET FORMULATIONS OF PIPERAZINE-PIPERIDINE ANTAGONISTS AND AGONISTS OF THE 5-HT1A RECEPTOR HAVING ENHANCED INTESTINAL DISSOLUTION” (WYETH, priority 2007, published 2008) are described below.

In brackets after ≈: the same amount, converted by molar mass. Like-named read-outs stand apart in the source and are kept apart here. Where only a bound is given, the exact number is not on record here.

A short description of data set [1]: physchem. Format: physicochemical. The source says: (§1) Pharmaceutical compounds that interact with the 5-HT1A receptor are useful to treat a wide variety of central nervous system disorders, such as cognition disorders, anxiety disorders, and depression. Certain piperazine-piperidine compounds have shown utility as 5-HT1A receptor antagonists, agonists and partial antagonist/agonists. See, for example, U.S. Patent Publication No. 2007/0027160, filed Jun. 9, 2006, entitled “piperazine-Piperidine Antagonists And Agonists Of The 5-HT1A Receptor”. […] During development of 5-fluoro-8-{4-[4-(6-methoxyquinolin-8-yl)piperazin-1-yl]piperidin-1-yl}quinoline, it was discovered that the compound has a pH-dependent solubility. […] Therefore, the rate of systemic input of 5-fluoro-8-{4-[4-(6-methoxyquinolin-8-yl)piperazin-1-yl]piperidin-1-yl}quinoline will be dependent on the dissolution or solubilization of the compound. […] A controlled-release formulation to reduce the dose frequency of 5-fluoro-8-{4-[4-(6-methoxyquinolin-8-yl)piperazin-1-yl]piperidin-1-yl}quinoline would be beneficial for improving compliance and convenience. However, this type of formulation presents the challenge of maintaining the dissolution of the compound in the lower gastrointestinal tract where solubility is very low.

The nature of data set [2]: Permeability characteristics in animal studies. Format: in vivo.
Description: as §1

A short description of data set [3]: Preclinical half-life after IV bolus. Particulars: Sprague-Dawley rats, 0.3 mg/kg IV bolus. Type of data set: in vivo. The source says: See, for example, U.S. Patent Publication No. 2007/0027160, filed Jun. 9, 2006, entitled “piperazine-Piperidine Antagonists And Agonists Of The 5-HT1A Receptor”.

For the molecule `COc1cc(N2CCN(C3CCN(c4ccc(F)c5cccnc45)CC3)CC2)c2ncccc2c1` [5-fluoro-8-{4-[4-(6-methoxyquinolin-8-yl)piperazin-1-yl]piperidin-1-yl}quinoline], the solubility in data set [1] (free base, water, read-out: water solubility) is roughly 0.04 µg/mL (≈ 0.0848 µM); in data set [1] (pH 2.4, aqueous buffer, pH about 2.4, read-out: solubility), roughly 2200 µg/mL (≈ 4670 µM); in data set [1] (pH 6, aqueous buffer, pH levels greater than about 6, read-out: solubility), less than 1 µg/mL; in data set [1] (pH 8.9, aqueous buffer, pH about 8.9, read-out: solubility), roughly 0.036 µg/mL (≈ 0.0763 µM). Also, in data set [2], the permeability result is recorded as “high permeability”. The t1/2 result in data set [3] was “about one”.
`COc1cc(N2CCN(C3CCN(c4ccc(F)c5cccnc45)CC3)CC2)c2ncccc2c1.O=C(O)CCC(=O)O.O=C(O)CCC(=O)O.O=C(O)CCC(=O)O` [5-fluoro-8-{4-[4-(6-methoxyquinolin-8-yl)piperazin-1-yl]piperidin-1-yl}quinoline trisuccinate]: the solubility entry was “sub-microgram per milliliter level” in data set [1] (trisuccinate salt, pH greater than about six) and roughly 1000 µg/mL in data set [1] (water, trisuccinate salt, aqueous, read-out: aqueous solubility).
